# Patent publication US20240293563A1, “GLP-1 RECEPTOR LIGAND MOIETY CONJUGATED OLIGONUCLEOTIDES AND USES THEREOF” (priority 2017, published 2024)
# Square brackets hold non-standard residues; d marks the D form. Side chains are listed from the residue outwards. Ends that are not written are not given here. 5'‑hexylamino oligonucleotide ISIS 786434 = not defined here; Aib = CC(C)(N)C(=O)O; Mpa = O=C(O)CCS
# Experiments:
# MALAT1 [1] = assay: In situ hybridization of MALAT1 (QuantiGene ViewRNA) in mouse tissues after intravenous ASO; format: in vivo
# From the text: NO: 63) or a GLP-1 conjugated MALAT1 ASO (ISIS 816385) described in Example 1 at concentrations of 1.8. 0.6, or 0.2 μmol/kg. […] MALAT1 expression was detected using the QuantiGene ViewRNA tissue assay (Affymetrix, cat. No. QVT0011). Species-specific MALAT1 probes were purchased from Affymetrix (cat. No. VB-11110-01/mouse; VF1-13963/monkey). In brief, mouse tissues were fixed in 10% neutral-buffered formalin and embedded into paraffin and sectioned into […]. After deparaffinization, the tissue slides were boiled in Affymetrix pretreatment solution for 10-30 minutes followed by treatment with protease at 40° C. for 10 to 40 minutes depending on tissue. The MALAT1 RNA probe was used at a 1:40 dilution and was incubated with sample at 40° C. for 120 minutes. After washing, the MALAT1 RNA/probe complex was hybridized with preamplifier, amplifier, and AP-oligonucleotides at 40° C. for 25, 15, and 15 minutes, respectively. After removal of free AP oligonucleotide by washing in PBS, the slide was incubated with Fast Red substrate at room temperature for 30 minutes. The tissue images were acquired using an Aperio scanner. Hung et al., 2013 Nuc Acid Ther. 369-78. To determine a dose response of a GLP-1 conjugated MALAT1 ASO (ISIS 816385) described in Example 1 on pancreatic MALAT1 expression, male C57BL/6 mice fed a chow diet received a single intravenous injection of ISIS 816385 or an unconjugated MALAT1 ASO (ISIS 556089) described above at concentrations of 0.2, 0.06, and 0.02 μmol/kg. MALAT1 expression was detected using the QuantiGene ViewRNA tissue assay described above.
# MALAT1 [2] = assay: Effect of peptide composition and attachment point on peptide-conjugated ASO activity in LVX-GLP1R cells; format: cell-based, human; details: 7 doses in a 4-fold dilution series, MALAT1 RNA
# MALAT1 mRNA = assay: Dose dependent antisense inhibition of MALAT1 in WT HEK293 cells; format: cell-based, human; details: approximately 24 hrs, qRT-PCR normalized to RPLP0
# MALAT1 [3] = assay: MALAT1 expression in liver by in situ hybridization; format: in vivo, mouse
# Procedure: Tissues were prepared as described herein, Example 11. The in situ mRNA amplification and labelling process was performed on the Ventana Discovery ULTRA, an Automated ISH platform(Ventana Medical System, Inc) using the RNAscope® VS Assay based on Advanced Cell Diagnostics (ACD). Customized probes were obtained from ACD for the detection of MALAT1 mRNA, and various parameters were tested to optimize the novel RNAscope method for ISH. The signal was amplified using multiple steps, followed by labeled probes and detected using the RNAscope® 2.5 VS Reagent Kit-RED. […] All animals were sacrificed approximately 72 hrs after last, and liver harvested for ex vivo analysis of MALAT1 expression by in situ hybridization. Tissues were prepared, and in situ hybridization performed, as described herein, Example 12.
# MALAT1 [4] = assay: MALAT1 inhibition in isolated islets 72 hrs after single s.c. dose, various linkers; format: in vivo, mouse
# MALAT-1 = assay: Dose-dependent reduction of MALAT-1 expression in LVX-GLP1R cells; format: cell-based, human
# Procedure: HEK cells stably expressing FLAG-tagged GLP1R were generated by infecting HEK 293 cells with FLAG-tagged GLP1R containing lentivirus produced by transfection of 293T cells with pLVX-IRES-Puro (Clontech Laboratories Inc., Mountainview, CA) harboring the FLAG-GLP1R insert. Infected cells were selected with puromycin (2 μg/ml) and then analyzed for receptor expression by western blot and immunofluorescence. Cultured GLP1R cells were plated at a density of 10,000 cells per well and treated with 0.3, 1, 3, 9, 27, 82, 247, 741, 2,222, 6,667, and 20,000 nM modified oligonucleotide for approximately 24 hours. After the treatment period, total RNA was prepared using an RNeasy mini kit (Qiagen, Valencia, CA, USA) and qRT-PCR was performed using the primer probe set RTS2739 (forward sequence: […] (SEQ ID NO: 74), reverse sequence: […] (SEQ ID NO: 75), probe sequence: […] (SEQ ID NO: 76). Briefly, ˜50 ng total RNA in 5 d water was mixed with 0.3 d primer probe sets containing forward and reverse primers (10 μM of each) and fluorescently labeled probe (3 μM), 0.3 W RT enzyme mix (Qiagen), 4.4 d RNase-free water, and 10 d of 2×PCR reaction buffer in a 20 d reaction. Reverse transcription was performed at 48° C. for 10 min, 40 cycles of PCR were conducted at 94° C. for 20 s, and 60° C. for 20 s within each cycle, using StepOne Plus RT-PCR system (Applied Biosystems, Phoenix, AZ, USA). The mRNA levels were normalized to the amount of total RNA present in each reaction as determined by Ribogreen assay (Life Technologies) and normalized to the saline control (100% expression).
# MALAT1 [5] = assay: MALAT1 in situ hybridization in beta islet cells after i.v. GLP-1 ASO conjugates with various linkers; format: in vivo, mouse; details: male C57BL/6 mice; intravenous 0.6 μmol/kg/week once a week for three weeks; 72 hours after final injection
# MALAT1 [6] = assay: MALAT1 expression in pancreas by in situ hybridization (RNAscope); format: in vivo, mouse; details: 2 μmol/kg, 72 hrs after last dose
# From the text: Female C57BL/6Crl mice were assigned to five treatment groups. […] All animals were sacrificed approximately 72 hrs after last dose, and pancreas harvested for ex vivo analysis of uptake of antisense oligonucleotides by immunohistochemistry.
# Female C57BL/6Crl mice were assigned to five treatment groups as described herein (Example 11) All animals were sacrificed approximately 72 hrs after last dose, and pancreas harvested for ex vivo analysis of MALAT1 expression by in situ hybridization.
# The in situ mRNA amplification and labelling process was performed on the Ventana Discovery ULTRA, an Automated ISH platform(Ventana Medical System, Inc) using the RNAscope® VS Assay based on Advanced Cell Diagnostics (ACD). Customized probes were obtained from ACD for the detection of MALAT1 mRNA, and various parameters were tested to optimize the novel RNAscope method for ISH. The signal was amplified using multiple steps, followed by labeled probes and detected using the RNAscope® 2.5 VS Reagent Kit-RED. Stained slides were analyzed under a standard bright-field microscope.
# MALAT-1 mRNA = assay: Dose-response inhibition of MALAT-1 mRNA in pancreatic islets 72 hrs after single s.c. dose, various linkers; format: in vivo, mouse; details: 0.01 μmol/kg single subcutaneous injection, relative to PBS
substance,measurement,setting,value
ISIS 816385 (H[Aib]EGTFTSDVSSYLEEQAAKEFIAWLVKGGPSSGAPPPSC([Mpa-5'‑hexylamino oligonucleotide ISIS 786434])-NH2; reading uncertain; also: Cys40 joined to the linker by a disulfide),effect in liver (MALAT1 in situ hybridization),"MALAT1 [1]; Study 2, single intravenous injection, any of the doses 0.2, 0.06, 0.02 μmol/kg",No observable effect
same,MALAT1 staining in beta islet cells of the pancreas (in situ hybridization),"MALAT1 [1]; Study 2, single intravenous injection, at the 0.2 μmol/kg dose and 0.06 μmol/kg dose",reduced MALAT1 staining
same,MALAT1 expression in pancreatic beta islet cells (in situ hybridization),"MALAT1 [1]; male C57BL/6 mice, 2 intravenous injections of 1.8, 0.6 or 0.2 μmol/kg, 72 hours after final injection",reduced MALAT1 expression
same,IC50,MALAT1 [2],350 nM
same,IC50,MALAT1 mRNA,2210 nM
same,Liver MALAT1 expression,"MALAT1 [3]; 2 μmol/kg intravenous, compared to vehicle control",reduced compared to vehicle control
same,Liver MALAT1 expression in hepatocytes,"MALAT1 [3]; 2 μmol/kg subcutaneous, compared with ISIS 556089",reduced in hepatocytes of animals treated with ISIS 816385 to a greater extent
same,In vivo ED50,"MALAT1 [4]; MALAT1 in isolated islets, single subcutaneous injection",0.0088 µmol/kg
same,% MALAT1 inhibition,"MALAT1 [4]; isolated islets, female C57BL/6Crl mice, single subcutaneous injection of 0.01 μmol/kg",41%
same,dose-dependent inhibition of MALAT-1,"MALAT-1; GLP1R HEK cells, GLP-1 complexed ASOs with or without a TCA linker versus parent",increased dose-dependent inhibition
same,IC50,"MALAT-1; approximately 24 hours, read-out: IC50 (MALAT-1 expression in GLP1R HEK cells)",260 nM
same,MALAT1 expression in beta islet cells compared to saline control (in situ hybridization),MALAT1 [5],reduced
same,MALAT1 expression in the pancreatic islet of Langerhans,MALAT1 [6]; subcutaneous or intravenous (ISIS 556089 subcutaneous only),reduced
same,MALAT1 expression in the exocrine tissue of pancreas,MALAT1 [6]; subcutaneous or intravenous,not in the exocrine tissue
same,% inhibition of MALAT-1 mRNA in Pancreatic Islets,MALAT-1 mRNA,52%
